Reference: patent publication US11524938B2, “Aromatic sulfonamide derivatives” (Bayer Pharma Aktiengesellschaft, priority 2016, dated 2022)

Molecular target: T1, human P2X4 (Homo sapiens, UniProt Q99571)
T1 sequence (Q99571 1-388): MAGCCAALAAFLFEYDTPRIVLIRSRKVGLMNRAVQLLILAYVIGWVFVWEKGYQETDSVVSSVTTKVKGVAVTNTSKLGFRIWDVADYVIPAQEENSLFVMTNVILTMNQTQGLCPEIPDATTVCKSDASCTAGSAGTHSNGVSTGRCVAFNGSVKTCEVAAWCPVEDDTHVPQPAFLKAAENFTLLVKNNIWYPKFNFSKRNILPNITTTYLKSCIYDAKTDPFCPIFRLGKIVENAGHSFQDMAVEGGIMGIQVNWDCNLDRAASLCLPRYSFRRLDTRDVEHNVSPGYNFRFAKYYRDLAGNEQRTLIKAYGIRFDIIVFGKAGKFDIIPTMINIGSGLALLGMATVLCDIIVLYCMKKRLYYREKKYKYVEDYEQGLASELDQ
Test: Human P2X4 HEK Cell FLIPR Assay
Type: cell-based
Settings: agonist Bz-ATP at EC80; for Emax: HEK293, HEK293 cells, percentage of maximal inhibition, read-out: Human P2X4 HEK Cells (FLIPR Assay) avg Efficacy [%]; for IC50: HEK293 cells, individual values listed where some fall outside detection range
Method in brief: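 Calcium flux read by FLIPR for 120 sec after Bz-ATP challenge at EC80 (established each assay day), following 30 min room-temperature compound preincubation in dye-loaded stable human P2X4 HEK293 cells. Peak RFU over basal normalized to agonist control; IC50, maximal inhibition and Hill coefficient from triplicate means.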

Emax	IC50	SMILES
73%	7280 nM	NS(=O)(=O)c1cc(NC(=O)Cc2ccccc2Cl)ccc1-c1ccc(Cl)cn1 [Example 319, 2-(2-Chlorophenyl)-N-[4-(5-chloropyridin-2-yl)-3-sulfamoylphenyl]acetamide]
51%	> 25000 nM	Cc1nc(-c2ccc(NC(=O)Cc3ccccc3Cl)cc2S(N)(=O)=O)cn1C [Example 320, 2-(2-Chlorophenyl)-N-[4-(1,2-dimethyl-1H-imidazol-4-yl)-3-sulfamoylphenyl]acetamide]
81%	186 nM	NS(=O)(=O)c1cc(NC(=O)Cc2ccccc2Cl)ccc1-c1cncc(N2CCCC2)c1 [Example 322, 2-(2-Chlorophenyl)-N-{4-[5-(pyrrolidin-1-yl)pyridin-3-yl]-3-sulfamoylphenyl}acetamide]
81%	2580 nM	NS(=O)(=O)c1cc(NC(=O)C(O)c2ccccc2Cl)ccc1-c1cnn(C2CC2)c1 (stereo not shown) [Example 323, 2-(2-Chlorophenyl)-N-[4-(1-cyclopropyl-1H-pyrazol-4-yl)-3-sulfamoylphenyl]-2-hydroxyethanamide]
59%	3050 nM	NS(=O)(=O)c1cc(NC(=O)C(O)c2ccccc2Cl)ccc1-c1cnn(C(F)F)c1 (stereo not shown) [Example 324, 2-(2-Chlorophenyl)-N-{4-[1-(difluoromethyl)-1H-pyrazol-4-yl]-3-sulfamoylphenyl}-2-hydroxyethanamide]
94%	9 nM	NS(=O)(=O)c1cc(NC(=O)Cc2ccccc2Cl)ccc1-c1cncc(Cl)c1 [Example 325, 2-(2-Chlorophenyl)-N-[4-(5-chloropyridin-3-yl)-3-sulfamoylphenyl]acetamide]
94%	11 nM	NS(=O)(=O)c1cc(NC(=O)Cc2ccccc2Cl)ccc1-c1cncc(F)c1 [Example 327, 2-(2-Chlorophenyl)-N-[4-(5-fluoropyridin-3-yl)-3-sulfamoylphenyl]acetamide]
94%	12 nM	CC(C)Cn1cc(-c2ccc(NC(=O)Cc3ccccc3Cl)cc2S(N)(=O)=O)cn1 [Example 328, 2-(2-Chlorophenyl)-N-{4-[1-(2-methylpropyl)-1H-pyrazol-4-yl]-3-sulfamoylphenyl}acetamide]
100%	13 nM	NS(=O)(=O)c1cc(NC(=O)Cc2ccccc2Cl)ccc1-c1cnn(C2CCCC2)c1 [Example 329, 2-(2-Chlorophenyl)-N-[4-(1-cyclopentyl-1H-pyrazol-4-yl)-3-sulfamoylphenyl]acetamide]
101%	14 nM	CC(C)Oc1cccc(-c2ccc(NC(=O)Cc3ccccc3Cl)cc2S(N)(=O)=O)c1F [Example 330, 2-(2-Chlorophenyl)-N-[2′-fluoro-3′-(propan-2-yloxy)-2-sulfamoylbiphenyl-4-yl]-acetamide]
66%		NS(=O)(=O)c1cc(NC(=O)Cc2ccccc2Cl)ccc1-c1cncc(C(F)(F)F)c1 [Example 331, 2-(2-Chlorophenyl)-N-{3-sulfamoyl-4-[5-(trifluoromethyl)pyridin-3-yl]phenyl}-acetamide]
89%	326 nM	COc1cc(-c2ccc(NC(=O)Cc3ccccc3Cl)cc2S(N)(=O)=O)cnc1Cl [Example 332, N-[4-(6-Chloro-5-methoxypyridin-3-yl)-3-sulfamoylphenyl]-2-(2-chlorophenyl)-acetamide]
101%	15 nM	NS(=O)(=O)c1cc(NC(=O)Cc2c(F)cccc2Cl)ccc1-c1cnn(C2CC2)c1 [Example 333, 2-(2-Chloro-6-fluorophenyl)-N-[4-(1-cyclopropyl-1H-pyrazol-4-yl)-3-sulfamoylphenyl]acetamide]
98%	18 nM	Cn1cc(-c2ccc(NC(=O)Cc3cccc(F)c3Cl)cc2S(N)(=O)=O)cn1 [Example 334, 2-(2-Chloro-3-fluorophenyl)-N-[4-(1-methyl-1H-pyrazol-4-yl)-3-sulfamoylphenyl]-acetamide]
98%	20 nM	CC(C)(C)n1cc(-c2ccc(NC(=O)Cc3ccccc3Cl)cc2S(N)(=O)=O)cn1 [Example 335, N-[4-(1-tert-Butyl-1H-pyrazol-4-yl)-3-sulfamoylphenyl]-2-(2-chlorophenyl)acetamide]
109%	28 nM	CC(C)Oc1ncccc1-c1ccc(NC(=O)Cc2ccccc2Cl)cc1S(N)(=O)=O [Example 336, 2-(2-Chlorophenyl)-N-{4-[2-(propan-2-yloxy)pyridin-3-yl]-3-sulfamoylphenyl}acetamide]
96%	30 nM	NS(=O)(=O)c1cc(NC(=O)Cc2cccc(F)c2Cl)ccc1-c1cnn(C2CC2)c1 [Example 337, 2-(2-Chloro-3-fluorophenyl)-N-[4-(1-cyclopropyl-1H-pyrazol-4-yl)-3-sulfamoylphenyl]acetamide]

Emax	IC50	SMILES
91%	32 nM	NS(=O)(=O)c1cc(NC(=O)Cc2ccccc2F)ccc1-c1cccnc1 [Example 338, 2-(2-Fluorophenyl)-N-[4-(pyridin-3-yl)-3-sulfamoylphenyl]acetamide]
92%	33 nM	Cn1cc(-c2ccc(NC(=O)Cc3c(F)cccc3Cl)cc2S(N)(=O)=O)cn1 [Example 339, 2-(2-Chloro-6-fluorophenyl)-N-[4-(1-methyl-1H-pyrazol-4-yl)-3-sulfamoylphenyl]-acetamide]
89%	34 nM	CC(C)(O)c1cc(F)cc(-c2ccc(NC(=O)Cc3ccccc3Cl)cc2S(N)(=O)=O)c1 [Example 340, 2-(2-Chlorophenyl)-N-[3′-fluoro-5′-(2-hydroxypropan-2-yl)-2-sulfamoylbiphenyl-4-yl]acetamide]
86%	41 nM	COc1cncc(-c2ccc(NC(=O)Cc3ccccc3Cl)cc2S(N)(=O)=O)c1 [Example 341, 2-(2-Chlorophenyl)-N-[4-(5-methoxypyridin-3-yl)-3-sulfamoylphenyl]acetamide]
101%	41 nM	CC(C)(O)c1cccc(-c2ccc(NC(=O)Cc3ccccc3Cl)cc2S(N)(=O)=O)c1 [Example 342, 2-(2-Chlorophenyl)-N-[3′-(2-hydroxypropan-2-yl)-2-sulfamoylbiphenyl-4-yl]acetamide]
101%	42 nM	CC(C)n1cc(-c2ccc(NC(=O)Cc3ccccc3F)cc2S(N)(=O)=O)cn1 [Example 343, 2-(2-Fluorophenyl)-N-{4-[1-(propan-2-yl)-1H-pyrazol-4-yl]-3-sulfamoylphenyl}-acetamide]
102%	44 nM	NS(=O)(=O)c1cc(NC(=O)Cc2ccccc2F)ccc1-c1cnn(C2CC2)c1 [Example 344, N-[4-(1-Cyclopropyl-1H-pyrazol-4-yl)-3-sulfamoylphenyl]-2-(2-fluorophenyl)-acetamide]
93%	46 nM	NS(=O)(=O)c1cc(NC(=O)Cc2ccccc2Cl)ccc1-c1cnn(C2CCCCO2)c1 (stereo not shown) [Example 345, 2-(2-Chlorophenyl)-N-{3-sulfamoyl-4-[1-(tetrahydro-2H-pyran-2-yl)-1H-pyrazol-4-yl]phenyl}acetamide]
105%	46 nM	CC(C)(C)n1cc(-c2ccc(NC(=O)Cc3ccccc3F)cc2S(N)(=O)=O)cn1 [Example 346, N-[4-(1-tert-Butyl-1H-pyrazol-4-yl)-3-sulfamoylphenyl]-2-(2-fluorophenyl)acetamide]
89%	85 nM	CC(C)(O)c1cc(F)cc(-c2ccc(NC(=O)Cc3ccccc3F)cc2S(N)(=O)=O)c1 [Example 347, N-[3′-Fluoro-5′-(2-hydroxypropan-2-yl)-2-sulfamoylbiphenyl-4-yl]-2-(2-fluorophenyl)acetamide]
96%	47 nM	NS(=O)(=O)c1cc(NC(=O)Cc2ccccc2F)ccc1-c1cnn(C2CCCC2)c1 [Example 348, N-[4-(1-Cyclopentyl-1H-pyrazol-4-yl)-3-sulfamoylphenyl]-2-(2-fluorophenyl)-acetamide]
99%		NS(=O)(=O)c1cc(NC(=O)Cc2ccccc2Cl)ccc1-c1cnn(C2CC2)c1 [Example 349, 2-(2-Chlorophenyl)-N-[4-(1-cyclopropyl-1H-pyrazol-4-yl)-3-sulfamoylphenyl]acetamide]
87%	49 nM	COCCn1cc(-c2ccc(NC(=O)Cc3c(F)cccc3Cl)cc2S(N)(=O)=O)cn1 [Example 350, 2-(2-Chloro-6-fluorophenyl)-N-{4-[1-(2-methoxyethyl)-1H-pyrazol-4-yl]-3-sulfamoylphenyl}acetamide]
88%	51 nM	Cc1cc(-c2ccc(NC(=O)Cc3ccccc3Cl)cc2S(N)(=O)=O)n(C)n1 [Example 351, 2-(2-Chlorophenyl)-N-[4-(1,3-dimethyl-1H-pyrazol-5-yl)-3-sulfamoylphenyl]acetamide]
91%	54 nM	NS(=O)(=O)c1cc(NC(=O)Cc2ccccc2Cl)ccc1-c1ccc(Cl)cc1 [Example 352, 2-(2-Chlorophenyl)-N-(4′-chloro-2-sulfamoylbiphenyl-4-yl)acetamide]
87%	57 nM	Cn1nc(C(F)(F)F)cc1-c1ccc(NC(=O)Cc2ccccc2Cl)cc1S(N)(=O)=O [Example 353, 2-(2-Chlorophenyl)-N-{4-[1-methyl-3-(trifluoromethyl)-1H-pyrazol-5-yl]-3-sulfamoylphenyl}acetamide]
